Results: US20240327364A1, “THERAPEUTIC TARGETING OF GPR68 TO INDUCE FERROPTOSIS” (University Of Maryland, Baltimore, priority 2023, published 2024)

What was measured:
CSNK1G3 = CSNK1G3 (Homo sapiens, UniProt Q9Y6M4); test: KinomeScan; type: binding; conditions: read-out: % Control
PKMYT1 = biological target: T1, PKMYT1 (Homo sapiens, UniProt Q99640); test: KinomeScan; type: binding; conditions: read-out: % Control
T1 construct: purchased DiscoveRx (Fremont, CA)

P2Y12 = biological target: T2, P2Y12 (Homo sapiens, UniProt Q9H244); test: GPCR Profiler; type: cell-based
T2 construct: host or cells: Chem-1 cells expressing Gα15
T2 sequence (Q9H244 whole entry, species assumed): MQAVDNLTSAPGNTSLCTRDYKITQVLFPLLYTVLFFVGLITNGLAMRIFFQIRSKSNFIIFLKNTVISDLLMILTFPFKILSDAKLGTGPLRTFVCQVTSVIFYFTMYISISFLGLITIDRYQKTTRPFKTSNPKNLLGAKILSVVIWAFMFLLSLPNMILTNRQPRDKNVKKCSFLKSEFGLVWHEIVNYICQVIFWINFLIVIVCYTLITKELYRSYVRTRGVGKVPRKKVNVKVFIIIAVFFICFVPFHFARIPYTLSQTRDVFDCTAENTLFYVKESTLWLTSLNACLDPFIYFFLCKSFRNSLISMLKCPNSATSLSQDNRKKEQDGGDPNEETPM

P2Y2 = biological target: T3, P2Y2 (Homo sapiens, UniProt P41231); test: GPCR Profiler; type: cell-based
T3 construct: host or cells: Chem-1 cells expressing Gα15
T3 sequence (P41231 whole entry, species assumed): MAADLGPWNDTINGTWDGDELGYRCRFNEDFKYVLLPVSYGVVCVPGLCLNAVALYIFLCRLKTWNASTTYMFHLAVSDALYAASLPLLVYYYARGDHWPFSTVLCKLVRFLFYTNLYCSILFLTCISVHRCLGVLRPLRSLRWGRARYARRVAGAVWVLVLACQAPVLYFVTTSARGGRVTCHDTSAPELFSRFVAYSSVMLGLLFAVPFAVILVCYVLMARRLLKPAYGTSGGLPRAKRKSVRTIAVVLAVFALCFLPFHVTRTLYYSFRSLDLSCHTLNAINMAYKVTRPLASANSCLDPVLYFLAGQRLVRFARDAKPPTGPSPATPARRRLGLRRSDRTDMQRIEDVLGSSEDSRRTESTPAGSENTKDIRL

[1] = biological target: T4, RSK4(Kin.Dom.2-C-terminal) (Homo sapiens, UniProt Q9UK32); test: KinomeScan; type: binding; conditions: read-out: % Control
T4 construct: RSK4(Kin.Dom.2-C-terminal); purchased DiscoveRx (Fremont, CA)

PHKG2 = biological target: T5, PHKG2 (Homo sapiens, UniProt P15735); test: KinomeScan; type: binding; conditions: read-out: % Control
T5 construct: purchased DiscoveRx (Fremont, CA)

ERK1 = biological target: T6, ERK1 (Homo sapiens, UniProt P27361); test: KinomeScan; type: binding; conditions: read-out: % Control
T6 construct: purchased DiscoveRx (Fremont, CA)

FLT3(D835H) = biological target: T7, FLT3(D835H) (Homo sapiens, UniProt P36888, D835H); test: KinomeScan; type: binding; conditions: read-out: % Control
T7 construct: purchased DiscoveRx (Fremont, CA)

MAST1 = biological target: T8, MAST1 (Homo sapiens, UniProt Q9Y2H9); test: KinomeScan; type: binding; conditions: read-out: % Control
T8 construct: purchased DiscoveRx (Fremont, CA)

CSNK1A1 = CSNK1A1 (Homo sapiens, UniProt P48729); test: KinomeScan; type: binding; conditions: read-out: % Control
CSNK1A1, sequence (P48729 whole entry): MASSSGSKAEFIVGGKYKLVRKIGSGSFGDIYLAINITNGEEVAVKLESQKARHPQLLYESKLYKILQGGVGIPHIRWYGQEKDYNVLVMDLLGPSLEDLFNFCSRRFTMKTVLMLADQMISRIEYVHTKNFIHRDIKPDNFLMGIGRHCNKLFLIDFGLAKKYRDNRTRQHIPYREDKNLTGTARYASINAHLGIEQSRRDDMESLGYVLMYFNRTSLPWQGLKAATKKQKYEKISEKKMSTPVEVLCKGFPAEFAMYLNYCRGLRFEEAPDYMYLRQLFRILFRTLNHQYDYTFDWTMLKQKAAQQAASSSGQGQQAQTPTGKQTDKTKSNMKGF

PKNB(M. tuberculosis) = biological target: T9, PKNB(M. tuberculosis) (Mycobacterium tuberculosis, UniProt P9WI81); test: KinomeScan; type: binding; conditions: read-out: % Control
T9 construct: purchased DiscoveRx (Fremont, CA)

JNK1 = biological target: T10, JNK1 (Homo sapiens, UniProt P45983); test: KinomeScan; type: binding; conditions: read-out: % Control
T10 construct: purchased DiscoveRx

ZAP70 = biological target: T11, ZAP70 (Homo sapiens, UniProt P43403); test: KinomeScan; type: binding; conditions: read-out: % Control
T11 construct: purchased DiscoveRx

ChemR23 = biological target: T12, ChemR23 (Homo sapiens, UniProt Q99788); test: GPCR Profiler; type: cell-based
T12 construct: host or cells: Chem-1 cells with Gα15
T12 sequence (Q99788 whole entry, species assumed): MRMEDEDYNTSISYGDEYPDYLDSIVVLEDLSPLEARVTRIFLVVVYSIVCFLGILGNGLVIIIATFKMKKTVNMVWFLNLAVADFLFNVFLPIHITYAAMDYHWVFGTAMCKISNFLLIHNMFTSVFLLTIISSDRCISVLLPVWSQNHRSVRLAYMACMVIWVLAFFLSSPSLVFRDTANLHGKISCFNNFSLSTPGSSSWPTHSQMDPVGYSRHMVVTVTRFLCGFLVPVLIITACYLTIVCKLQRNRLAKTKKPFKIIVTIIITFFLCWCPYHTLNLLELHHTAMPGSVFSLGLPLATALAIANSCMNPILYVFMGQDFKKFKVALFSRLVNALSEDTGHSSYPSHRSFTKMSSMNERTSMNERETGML

PAF = biological target: T13, PAF (Homo sapiens, UniProt P25105); test: GPCR Profiler; type: cell-based
T13 construct: host or cells: Chem-1 cells with Gα15
T13 sequence (P25105 whole entry): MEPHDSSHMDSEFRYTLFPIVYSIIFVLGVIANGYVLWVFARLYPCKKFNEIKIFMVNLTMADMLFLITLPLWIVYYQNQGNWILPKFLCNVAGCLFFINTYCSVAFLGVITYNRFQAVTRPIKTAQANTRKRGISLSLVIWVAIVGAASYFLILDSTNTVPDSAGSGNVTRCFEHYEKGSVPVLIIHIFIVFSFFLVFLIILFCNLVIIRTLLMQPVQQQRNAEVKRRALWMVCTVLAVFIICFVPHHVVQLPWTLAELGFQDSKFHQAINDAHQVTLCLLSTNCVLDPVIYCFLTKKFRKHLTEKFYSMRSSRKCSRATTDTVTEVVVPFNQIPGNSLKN

GPR41 = biological target: T14, GPR41 (Homo sapiens, UniProt O14843); test: GPCR Profiler; type: cell-based
T14 construct: host or cells: Chem-1 cells with promiscuous Gα15
T14 sequence (O14843 whole entry, species assumed): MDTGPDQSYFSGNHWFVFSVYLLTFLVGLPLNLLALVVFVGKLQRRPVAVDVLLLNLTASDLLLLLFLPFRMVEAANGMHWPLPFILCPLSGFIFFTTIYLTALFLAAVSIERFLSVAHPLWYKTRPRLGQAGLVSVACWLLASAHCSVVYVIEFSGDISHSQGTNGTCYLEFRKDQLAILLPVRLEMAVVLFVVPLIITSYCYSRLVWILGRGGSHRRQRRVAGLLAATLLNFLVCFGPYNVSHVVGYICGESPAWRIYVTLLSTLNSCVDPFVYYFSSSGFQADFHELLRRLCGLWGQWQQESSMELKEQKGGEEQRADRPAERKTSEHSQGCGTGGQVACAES

TAOK3 = biological target: T15, TAOK3 (Homo sapiens, UniProt Q9H2K8); test: KinomeScan; type: binding; conditions: read-out: % Control
T15 construct: purchased DiscoveRx (Fremont, CA)

PYK2 = biological target: T16, PYK2 (Homo sapiens, UniProt Q14289); test: KinomeScan; type: binding; conditions: read-out: % Control
T16 construct: purchased DiscoveRx (Fremont, CA)

PIK3CA(E545A) = biological target: T17, PIK3CA(E545A) (Homo sapiens, UniProt P42336, E545A); test: KinomeScan; type: binding; conditions: read-out: % Control
T17 construct: purchased DiscoveRx (Fremont, CA)

MLK2 = biological target: T18, MLK2 (Homo sapiens, UniProt Q02779); test: KinomeScan; type: binding; conditions: read-out: % Control
T18 construct: purchased DiscoveRx
T18 sequence (Q02779 whole entry): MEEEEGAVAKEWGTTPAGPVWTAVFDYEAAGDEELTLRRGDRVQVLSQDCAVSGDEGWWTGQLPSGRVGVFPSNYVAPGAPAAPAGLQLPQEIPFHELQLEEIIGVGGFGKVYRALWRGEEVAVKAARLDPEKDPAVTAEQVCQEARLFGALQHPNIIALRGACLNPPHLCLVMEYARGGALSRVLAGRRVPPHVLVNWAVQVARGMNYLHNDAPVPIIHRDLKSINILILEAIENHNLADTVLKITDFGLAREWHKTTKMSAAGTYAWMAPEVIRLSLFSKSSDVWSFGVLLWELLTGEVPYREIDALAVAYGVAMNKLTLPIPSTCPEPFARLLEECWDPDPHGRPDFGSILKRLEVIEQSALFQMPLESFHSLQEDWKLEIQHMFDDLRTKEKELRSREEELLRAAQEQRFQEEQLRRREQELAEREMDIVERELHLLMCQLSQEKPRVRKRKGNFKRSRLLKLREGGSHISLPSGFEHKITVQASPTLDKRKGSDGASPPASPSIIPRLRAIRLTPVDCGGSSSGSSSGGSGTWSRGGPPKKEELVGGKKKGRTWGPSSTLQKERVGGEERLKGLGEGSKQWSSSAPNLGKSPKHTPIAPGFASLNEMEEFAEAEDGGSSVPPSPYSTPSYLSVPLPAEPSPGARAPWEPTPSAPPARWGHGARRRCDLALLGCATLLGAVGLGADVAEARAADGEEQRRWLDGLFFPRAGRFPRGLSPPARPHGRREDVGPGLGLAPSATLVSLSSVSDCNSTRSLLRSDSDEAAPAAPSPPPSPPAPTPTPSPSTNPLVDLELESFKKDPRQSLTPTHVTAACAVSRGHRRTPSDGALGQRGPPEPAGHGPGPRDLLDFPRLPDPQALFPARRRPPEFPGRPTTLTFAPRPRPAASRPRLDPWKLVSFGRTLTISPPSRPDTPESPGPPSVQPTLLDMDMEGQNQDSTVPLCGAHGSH

TNK2 = biological target: T19, TNK2 (Homo sapiens, UniProt Q07912); test: KinomeScan; type: binding; conditions: read-out: % Control
T19 construct: purchased DiscoveRx (Fremont, CA)

FGFR4 = biological target: T20, FGFR4 (Homo sapiens, UniProt P22455); test: KinomeScan; type: binding; conditions: read-out: % Control
T20 construct: purchased DiscoveRx (Fremont, CA)

M2 = biological target: T21, M2 (Homo sapiens, UniProt P08172); test: GPCR Profiler; type: cell-based
T21 construct: host or cells: Chem-1 cells with promiscuous Gα15
T21 sequence (P08172 whole entry): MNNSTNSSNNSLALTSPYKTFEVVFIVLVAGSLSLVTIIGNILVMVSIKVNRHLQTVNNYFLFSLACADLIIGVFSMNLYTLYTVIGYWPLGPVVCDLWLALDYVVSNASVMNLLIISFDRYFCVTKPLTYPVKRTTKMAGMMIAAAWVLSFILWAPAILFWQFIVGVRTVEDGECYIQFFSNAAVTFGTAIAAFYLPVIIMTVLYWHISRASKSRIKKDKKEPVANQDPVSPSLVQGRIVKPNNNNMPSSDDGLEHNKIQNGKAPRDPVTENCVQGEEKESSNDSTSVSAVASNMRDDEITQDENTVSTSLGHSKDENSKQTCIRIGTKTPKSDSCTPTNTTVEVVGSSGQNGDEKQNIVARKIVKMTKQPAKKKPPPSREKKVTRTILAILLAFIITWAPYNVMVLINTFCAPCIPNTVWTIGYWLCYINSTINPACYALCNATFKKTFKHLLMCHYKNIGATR

MC5 = biological target: T22, MC5 (Homo sapiens, UniProt P33032); test: GPCR Profiler; type: cell-based
T22 construct: host or cells: Chem-1 cells with promiscuous Gα15
T22 sequence (P33032 whole entry): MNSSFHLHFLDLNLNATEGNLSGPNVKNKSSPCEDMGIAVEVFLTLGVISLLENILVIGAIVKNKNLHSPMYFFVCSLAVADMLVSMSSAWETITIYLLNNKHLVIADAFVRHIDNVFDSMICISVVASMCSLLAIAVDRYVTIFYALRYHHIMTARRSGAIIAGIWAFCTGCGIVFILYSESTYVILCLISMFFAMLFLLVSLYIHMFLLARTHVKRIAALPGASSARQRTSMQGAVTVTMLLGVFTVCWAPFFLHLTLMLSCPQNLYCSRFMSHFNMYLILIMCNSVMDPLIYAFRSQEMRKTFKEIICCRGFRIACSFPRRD

CDKL3 = CDKL3 (Homo sapiens, UniProt Q8IVW4); test: KinomeScan; type: binding; conditions: read-out: % Control
[2] = biological target: T23, ABL1(H396P)-phosphorylated (Homo sapiens, UniProt P00519, H396P); test: KinomeScan; type: binding; conditions: read-out: % Control
T23 construct: purchased DiscoveRx

EPHB2 = biological target: T24, EPHB2 (Homo sapiens, UniProt P29323); test: KinomeScan; type: binding; conditions: read-out: % Control
T24 construct: purchased DiscoveRx (Fremont, CA)

TAK1 = biological target: T25, TAK1 (Homo sapiens, UniProt O43318); test: KinomeScan; type: binding; conditions: read-out: % Control
T25 construct: purchased DiscoveRx (Fremont, CA)

PIK3C2G = biological target: T26, PIK3C2G (Homo sapiens, UniProt O75747); test: KinomeScan; type: binding; conditions: read-out: % Control
T26 construct: purchased DiscoveRx (Fremont, CA)

PFTK1 = biological target: T27, PFTK1 (Homo sapiens, UniProt O94921); test: KinomeScan; type: binding; conditions: read-out: % Control
T27 construct: purchased DiscoveRx (Fremont, CA)

PAK3 = biological target: T28, PAK3 (Homo sapiens, UniProt O75914); test: KinomeScan; type: binding; conditions: read-out: % Control
T28 construct: purchased DiscoveRx
T28 sequence (O75914 whole entry): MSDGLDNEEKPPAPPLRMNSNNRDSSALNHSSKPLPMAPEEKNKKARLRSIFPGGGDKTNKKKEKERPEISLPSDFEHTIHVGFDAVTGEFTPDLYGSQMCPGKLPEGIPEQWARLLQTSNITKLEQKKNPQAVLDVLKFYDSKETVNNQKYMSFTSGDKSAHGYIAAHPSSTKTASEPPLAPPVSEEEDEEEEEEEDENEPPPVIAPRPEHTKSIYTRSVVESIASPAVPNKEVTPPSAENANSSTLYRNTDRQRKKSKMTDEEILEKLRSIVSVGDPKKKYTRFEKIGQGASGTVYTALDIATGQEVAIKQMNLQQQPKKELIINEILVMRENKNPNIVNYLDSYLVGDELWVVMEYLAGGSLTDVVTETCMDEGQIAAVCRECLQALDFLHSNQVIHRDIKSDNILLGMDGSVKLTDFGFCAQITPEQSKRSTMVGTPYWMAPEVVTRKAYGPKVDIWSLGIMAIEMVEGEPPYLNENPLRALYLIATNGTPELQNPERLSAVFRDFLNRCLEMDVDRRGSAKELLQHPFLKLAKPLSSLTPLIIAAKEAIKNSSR

sst5 = biological target: T29, sst5 (Homo sapiens, UniProt P35346); test: GPCR Profiler; type: cell-based
T29 construct: host or cells: Chem-1 cells with Gα15
T29 sequence (P35346 whole entry, species assumed): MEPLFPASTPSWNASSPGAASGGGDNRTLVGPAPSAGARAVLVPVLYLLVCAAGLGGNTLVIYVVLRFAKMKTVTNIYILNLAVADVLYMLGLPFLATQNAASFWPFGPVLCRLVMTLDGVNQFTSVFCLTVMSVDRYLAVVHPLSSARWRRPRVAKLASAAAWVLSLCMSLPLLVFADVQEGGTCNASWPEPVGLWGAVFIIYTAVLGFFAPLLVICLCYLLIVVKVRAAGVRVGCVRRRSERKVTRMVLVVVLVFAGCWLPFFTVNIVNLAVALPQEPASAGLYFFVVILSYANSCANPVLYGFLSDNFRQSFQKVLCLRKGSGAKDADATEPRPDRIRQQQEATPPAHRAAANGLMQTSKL

LCK = biological target: T30, LCK (Homo sapiens, UniProt P06239); test: KinomeScan; type: binding; conditions: read-out: % Control
T30 construct: purchased DiscoveRx

[3] = biological target: T31, ABL1(Q252H)-nonphosphorylated (Homo sapiens, UniProt P00519, Q252H); test: KinomeScan; type: binding; conditions: read-out: % Control
T31 construct: purchased DiscoveRx

RIPK5 = biological target: T32, RIPK5 (Homo sapiens, UniProt Q6XUX3); test: KinomeScan; type: binding; conditions: read-out: % Control
T32 construct: purchased DiscoveRx (Fremont, CA)

[4] = biological target: T33, RSK2(Kin.Dom.1-N-terminal) (Homo sapiens, UniProt P51812); test: KinomeScan; type: binding; conditions: read-out: % Control
T33 construct: RSK2(Kin.Dom.1-N-terminal); purchased DiscoveRx (Fremont, CA)

## CCc1ccc2c(c1)C1(NN=C(c3cccc4ccccc34)S1)C(=O)N2 (centres unmarked) [OGM1, 5-ethyl-5′-naphthalen-1-ylspiro[1H-indole-3,2′-3H-1,3,4-thiadiazole]-2-one]
CSNK1G3
  remaining binding at 10 µM: 100%
PKMYT1
  remaining binding at 10 µM: 78%
P2Y12; 10 uM
  Antagonism: −0.3
P2Y12; 12.5 uM
  Agonism: 1
P2Y2; 10 uM
  Antagonism: −9
P2Y2; 12.5 uM
  Agonism: 0.1
[1]
  remaining binding at 10 µM: 41%
PHKG2
  remaining binding at 10 µM: 71%
ERK1
  remaining binding at 10 µM: 100%
FLT3(D835H)
  remaining binding at 10 µM: 100%
MAST1
  remaining binding at 10 µM: 58%
CSNK1A1
  remaining binding at 10 µM: 75%
PKNB(M. tuberculosis)
  remaining binding at 10 µM: 79%
JNK1
  remaining binding at 10 µM: 63%
ZAP70
  remaining binding at 10 µM: 73%
ChemR23; 10 uM
  Antagonism: 0.1
ChemR23; 12.5 uM
  Agonism: 0
PAF; 10 uM
  Antagonism: 6.6
PAF; 12.5 uM
  Agonism: 0.4
GPR41; 10 uM
  Antagonism: 1.9
GPR41; 12.5 uM
  Agonism: 0.4
TAOK3
  remaining binding at 10 µM: 79%
PYK2
  remaining binding at 10 µM: 100%
PIK3CA(E545A)
  remaining binding at 10 µM: 81%
MLK2
  remaining binding at 10 µM: 100%
TNK2
  remaining binding at 10 µM: 100%
FGFR4
  remaining binding at 10 µM: 100%
M2; 10 uM
  Antagonism: 3.3
M2; 12.5 uM
  Agonism: −0.1
MC5; 10 uM
  Antagonism: 13.9
MC5; 12.5 uM
  Agonism: 0.9
CDKL3
  remaining binding at 10 µM: 100%
[2]
  remaining binding at 10 µM: 83%
EPHB2
  remaining binding at 10 µM: 100%
TAK1
  remaining binding at 10 µM: 72%
PIK3C2G
  remaining binding at 10 µM: 50%
PFTK1
  remaining binding at 10 µM: 92%
PAK3
  remaining binding at 10 µM: 93%
sst5; 10 uM
  Antagonism: −4
sst5; 12.5 uM
  Agonism: −0.3
LCK
  remaining binding at 10 µM: 100%
[3]
  remaining binding at 10 µM: 84%
RIPK5
  remaining binding at 10 µM: 56%
[4]
  remaining binding at 10 µM: 95%
